Test results from US20030187007A1, “Inhibitors of protein kinase for the treatment of disease” (priority 2001, published 2003).

Key:
panel of protein kinases = test: Specificity studies, overall statement; type: biochemical
Method: The assays of kinases were determined by monitoring the phosphorylation of appropriate substrates. The assay mixture contained 0.1 mM cold ATP ^33P-γ-ATP (2000-4000 cpm/μL), 0.1 mM substrate, 1 mM DTT, and 10 mM MgCl2 in 100 mM HEPES buffer pH 7.4. The assay mixture, along with inhibitor and kinase enzyme (0.3-0.4 U/mL), was mixed together in a microtiter 96-well plate in a final volume of 40 μL, sealed and incbated for 1 hour at 30° C. Following incubation, a 15 μL aliquot was added to a Whatman P81 filtration plate containing 100 μL 0.5% phosphoric acid. This mixture was allowed to stand for 5 minutes prior to filtration on a vacuum manifold. The filter plate was washed with 5 successive additions of 300 μL 0.5% phosporic acid. The filtration plate was air dried for 10 minutes before sealing the bottom. After addition of scintillation fluid to the sealed plate, phosphorylated substrate was quantified in a scintillation counter.

CCRF-CEM = test: In vitro tumor cell efficacy test (SRB), Leukemia; type: cell-based; details: Homo sapiens, 72 hours
MOLT-4 = test: In vitro tumor cell efficacy test (SRB), Leukemia; type: cell-based; details: Homo sapiens, MOLT-4, Leukemia, 72 hours
RPMI-8226 = test: In vitro tumor cell efficacy test (SRB), Leukemia; type: cell-based; details: Homo sapiens, RPMI-8226, Leukemia, 72 hours
SR = test: In vitro tumor cell efficacy test (SRB), Leukemia; type: cell-based; details: Homo sapiens, 72 hours
HOP-62 = type: cell-based; details: Homo sapiens, HOP-62, Non-Small Cell Lung Cancer, 72 hours
NCI-H460 = type: cell-based; details: Homo sapiens, NCI-H460, Non-Small Cell Lung Cancer, 72 hours
NCI-H522 = type: cell-based; details: Homo sapiens; NCI-H522, Non-Small Cell Lung Cancer, 72 hours
COLO 205 = test: In vitro tumor cell efficacy test (SRB), Colon Cancer; type: cell-based; details: Homo sapiens, COLO 205, Colon Cancer, 72 hours
HCC-2998 = test: as above; type: cell-based; details: Homo sapiens, HCC-2998, Colon Cancer, 72 hours
HCT-116 = test: as above; type: cell-based; details: Homo sapiens; HCT-116, Colon Cancer, 72 hours
HT29 = test: as above; type: cell-based; details: Homo sapiens, HT-29, 72 hours
KM12 = test: as above; type: cell-based; details: Homo sapiens, 72 hours
SF-295 = test: In vitro tumor cell efficacy test (SRB), CNS Cancer; type: cell-based; details: Homo sapiens, SF-295, CNS Cancer, 72 hours
LOX IMVI = test: In vitro tumor cell efficacy test (SRB), Melonoma; type: cell-based; details: Homo sapiens, 72 hours
M14 = test: In vitro tumor cell efficacy test (SRB), Melonoma; type: cell-based; details: Homo sapiens, 72 hours
SK-MEL-28 = test: In vitro tumor cell efficacy test (SRB), Melonoma; type: cell-based; details: Homo sapiens, SK-MEL-28, Melonoma, 72 hours
SK-MEL-5 = test: In vitro tumor cell efficacy test (SRB), Melonoma; type: cell-based; details: Homo sapiens, SK-MEL-5, Melonoma, 72 hours
UACC-257 = test: In vitro tumor cell efficacy test (SRB), Melonoma; type: cell-based; details: Homo sapiens, UACC-257, Melonoma, 72 hours
A498 = test: In vitro tumor cell efficacy test (SRB), Renal Cancer; type: cell-based; details: Homo sapiens, 72 hours
DU-145 = test: In vitro tumor cell efficacy test (SRB), Prostate Cancer; type: cell-based; details: Homo sapiens; DU-145, Prostate Cancer, 72 hours
MCF7 = test: In vitro tumor cell efficacy test (SRB), Breast Cancer; type: cell-based; details: Homo sapiens, 72 hours
HS 578T = test: as above; type: cell-based; details: Homo sapiens, 72 hours
BT-549 = test: as above; type: cell-based; details: Homo sapiens; BT-549, Breast Cancer, 72 hours
[1] = test system: different cancer cell lines; test: In vitro tumor cell efficacy test (SRB), mean over all cell lines; type: cell-based; details: Mean over all cell lines of the table
OVCAR-3 = test: In vitro tumor cell efficacy test (SRB), Ovarian Cancer; details: Homo sapiens, OVCAR-3, 72 h
[2] = read-out: Log (LC50) (the source's name) (converted)

For Nc1nccc(-c2cc(-c3ccc(O)cc3)ccc2O)n1 [3-(2-Amino-pyrimidin-4-yl)-biphenyl-4,4′-diol], the specificity (panel of protein kinases; CDK5 and CDK2 versus a panel of protein kinases) was “highly specific for CDK5 and CDK2”, the “inhibition against a panel of protein kinases” value (panel of protein kinases; panel of protein kinases) was “little inhibition” and the GI50 (CCRF-CEM) was 200 nM. For the same compound, the CC50 (CCRF-CEM; [2]) was 79400 nM, the GI50 (MOLT-4) was 251 nM and the CC50 (MOLT-4; [2]) was over 100000 nM. The GI50 (RPMI-8226) was 200 nM, the CC50 (RPMI-8226; [2]) was over 100000 nM and the GI50 (SR) was 10 nM. For the same compound, the CC50 (SR; [2]) was over 100000 nM, the GI50 (HOP-62) was 79.4 nM and the CC50 (HOP-62; [2]) was 7940 nM. It also gave a GI50 (NCI-H460) of 251 nM, a CC50 (NCI-H460; [2]) of over 100000 nM and a GI50 (NCI-H522) of 200 nM. For the same compound, the LC50 (NCI-H522) was over 100000 nM, the GI50 (COLO 205) was 7940 nM and the CC50 (COLO 205; [2]) was over 100000 nM. For the same compound, the GI50 (HCC-2998) was 1260 nM, the CC50 (HCC-2998; [2]) was over 100000 nM and the GI50 (HCT-116) was 158 nM. For the same compound, the LC50 (concentration killing 50% of cells) (HCT-116) was over 100000 nM, the GI50 (HT29) was 3160 nM and the CC50 (HT29; [2]) was over 100000 nM. It also gave a GI50 (KM12) of 126 nM, a CC50 (KM12; [2]) of over 100000 nM and a GI50 (SF-295) of 251 nM. It also gave a CC50 (SF-295; [2]) of over 100000 nM, a GI50 (LOX IMVI) of 200 nM and a CC50 (LOX IMVI; [2]) of over 100000 nM. For the same compound, the GI50 (M14) was 398 nM, the CC50 (M14; [2]) was over 100000 nM and the GI50 (SK-MEL-28) was 251 nM. For the same compound, the CC50 (SK-MEL-28; [2]) was over 100000 nM, the GI50 (SK-MEL-5) was 100 nM and the CC50 (SK-MEL-5; [2]) was 20000 nM. The GI50 (UACC-257) was 1260 nM, the CC50 (UACC-257; [2]) was over 100000 nM and the GI50 (A498) was 1580 nM. For the same compound, the CC50 (A498; [2]) was over 100000 nM, the GI50 (DU-145) was 794 nM and the LC50 (DU-145) was over 100000 nM. It also gave a GI50 (MCF7) of 251 nM, an LC50 (MCF7) of over 100000 nM and a GI50 (HS 578T) of 398 nM. It also gave a CC50 (HS 578T; [2]) of over 100000 nM, a GI50 (BT-549) of 251 nM and an LC50 (BT-549) of over 100000 nM. It also gave a CC50 ([1]; read-out: Log (LC50) (M), Mean (converted)) of over 0.0001 M, a GI50 ([1]; read-out: log (GI50) (M), Mean (converted)) of 3.16e-07 M and a CC50 (OVCAR-3; read-out: Log (LC50) (M) (converted)) of over 0.0001 M. It also gave a GI50 (OVCAR-3; read-out: log (GI50) (M) (converted)) of 2.51e-07 M.
